Key:
[1] = target: T1, ChEH (Rattus norvegicus, UniProt Q9JJ46); assay: Determination of the Ki for ChEH on rat liver microsome proteins (Dixon method); assay type: biochemical; settings: 150 μg rat liver microsome proteins, [14C]CEα
T1 construct: 150 μg of rat liver microsome proteins are incubated; from tissue; host or cells: rat liver microsomes
T1 sequence (Q9JJ46 1-230): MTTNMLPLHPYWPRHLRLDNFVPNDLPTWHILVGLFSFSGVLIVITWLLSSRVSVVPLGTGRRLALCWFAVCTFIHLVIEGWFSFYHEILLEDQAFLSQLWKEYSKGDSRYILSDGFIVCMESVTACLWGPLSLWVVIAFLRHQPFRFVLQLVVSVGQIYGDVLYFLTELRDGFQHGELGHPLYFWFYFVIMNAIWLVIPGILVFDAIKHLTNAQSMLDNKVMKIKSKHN

[2] = tested on: OCDO; assay: OCDO content of TS/A tumors by GC/MS; assay type: in vivo, mice; settings: DDA 10 μM, 100 μl intratumorally once a day
Experimental: 5 volumes (relative to the mass removed) of buffer (50 mM Tris-HCl, 150 mM KCl, pH=7.4) are added. The tumors are ground and the homogenates are centrifuged for 5 minutes at 2500 rpm at 4° C. […] After centrifugation (to separate the phases), the organic phase is recovered. The organic phase is evaporated to dryness and then the residue is taken up with 0.5 ml of chloroform. The organic extracts are filtered on 0.5 ml silica cartridges. The polar sterols are eluted sequentially:
1) 0.5 ml of a hexane/chloroform mixture (1/1), 2) 0.5 ml of chloroform, 3) 0.5 ml of ethyl acetate and methanol.
The ethyl acetate fractions are evaporated, silylated (50 μl 1/1 acetonitrile/BSTFA) and then analyzed by GC/MS (2 μl) according to the conditions described above.

[3] = tested on: MCF7 cells; assay: OCDO production by MCF7 cells incubated with [14C]CE, thin-layer chromatography; assay type: cell-based, human; settings: concentration in μM in parentheses after each molecule; control = 100
Excerpt: For assays 1 to 5 and in some of the examples given later in this patent application, MCF7 tumor cells, which originate from the American Tissue Culture Collection (ATCC), were used. […] It is desired to study the activity of ChEH in […] cells by silica thin-layer chromatography. The compounds that it is desired to visualize are the CE and CT compounds defined above. In order to visualize the spots corresponding to CE and CT on a chromatography plate, ^14C-labeled CE and CT compounds were synthesized.
In order to be used in assays 1 to 5 which follow, the cells are seeded into 6-well plates at a density of 80 000 cells in a volume of 2 ml. […] After the incubation time desired for the assay, the medium is collected, the cells are washed with cold PBS (phosphate buffer) (2 ml per well) which is pooled with the medium. The cells are then scraped into cold PBS (1 ml for 3 wells); the wells are again rinsed with cold PBS (1 ml for 3 wells). The cell suspension obtained is centrifuged at 1000 rpm for 5 min at 4° C. […] Throughout the rest of this description, the vehicle solvent used is the same as that defined above.
The aqueous and organic radioactivities are counted. The organic phases are brought to dryness under argon. The residue is resuspended in 60 μl of ethanol and then deposited, in a proportion of 20 μl per lane, on to the glass-backed silica plates (Whatman LK-6-DF, 20×20), which are used in the various assays (these plates having been preheated at 100° C. for 1 hour). The migration solvent used is ethyl acetate. The chromatography plates are placed in contact with a “phosphor-screen” plate in a cassette overnight. […] In order to evaluate the more or less dense nature of the spots obtained on the plates, the radioactivity is quantified by densitometry with the “Imagequant”™ computer program.
Generally, in order to establish the percentages of OCDO inhibition from the thin-layer chromatography (TLC) plates obtained as in assay 2, the radioactive metabolites are identified and quantified on the basis of said plates using a europium-sensitive plate of GP Phosphor screen type (GE Healthcare) and a Storm 840 phosphorimagor (GE Healthcare). The proportion of radiolabeled oxysterols is determined on the autoradiogram obtained by densitometry using the Image Quant 5.2 software. The percentage is calculated on the basis of the ratio between the amount of oxysterols quantified divided by the sum of the amounts of oxysterols (CEE+CE+CT+OCDO). Since the CEE (CE ester) originates exclusively from the CE, the percentage CE is calculated on the basis of the ratio (CE+CEE)/(CE+CEE+CT+OCDO).
Assay 2 given above was therefore completed by measuring the amounts of the products present when the MCF7 tumor cells are incubated as indicated in detail in assay 2.
In order to establish that the link that exists between, on the one hand, the ability of various compounds to inhibit OCDO in an MCF7 tumor cell and, on the other hand, their quality as a ChEH inhibitor, is well-founded, the inhibition coefficients Ki for ChEH relating to a certain number of products was calculated and the production of OCDO by MCF7 cells after incubation of the cells with the same products was measured according to the protocol defined in assay 2 of the present patent application.

[4] = target: T2, ChEH (Homo sapiens, UniProt Q15125); assay: Inhibition of ChEH activity in MCF7 cells (TLC of [14C]CE conversion); assay type: cell-based; settings: 48 hours, MCF7 cells
T2 construct: MCF7 tumor cells, which originate from the American Tissue Culture Collection (ATCC), were used; host or cells: MCF7
Experimental: For this experiment, an aminoalkyl sterol included in French patent 2 838 741 (and also see: de Medina et al., J Med Chem: 2009, vol. 52, No. 23, p. 7765-7777), having the formula: 6-N-[2-(3H-imidazol-4-yl)ethylamino]cholestane-3β,5α-diol (DDA), was chosen. […]
A thin-layer chromatography was carried out, the plate of which has been reproduced in FIG. 23. On this plate, the incubation is carried out, for lane 1, with [^14C]CE; for lane 2, with [^14C]CT; for lane 3, with the vehicle solvent, which is the same as that used for assays 1 to 5; for lane 4, with [14C]CE and 0.1 μM of the aminoalkyl sterol; and for lane 5, with [^14C]CE and a concentration of 1 μM of the aminoalkyl sterol.

[5] = target: T2, ChEH; assay: ChEH activity on MCF7 cell lysate (homogenate); assay type: biochemical; settings: 150 μg of proteins, read-out: (IC50)homogenate, ChEH inhibition
Experimental: Moreover, a study of this inhibition on homogenate was also carried out. The protocol is as follows: the MCF7 cells are detached with trypsin and taken up with RPMI medium containing 5% FBS. The cell suspension obtained (60 million cells) is centrifuged, washed with cold PBS and resuspended in 1 ml of […] buffer (pH=7.4; 150 mM KCl). The cells are lyzed by means of five freezing/thawing (liquid nitrogen/37° C.) cycles. The solution is centrifuged at 1200 rpm at 4° C. for 10 minutes. The supernatant is recovered and the amount of proteins is determined by the Bradford method. The measurement of the ChEH activity on MCF7 cell lysate is carried out as follows: the enzymatic activity is measured on 150 μg of proteins in a final volume of 150 μl containing […] of ChEH buffer (Tris-HCl, pH 7.4, 150 mM KCl) and 15 μl of MCF7 proteins.

[6] = tested on: TS/A cells; assay: Tumor size of TS/A tumors implanted in BALB/c mice, intratumoral treatment; assay type: in vivo; settings: DDA 10 μM, 100 μl intratumorally once a day
Experimental: A cell culture of TS/A cells was first performed. These TS/A cells are mouse mammary adenocarcinomas (see Nanni P et al., Clin. Exp. Metastasis, 1983 October-December; 1(4): 373-80). The cells are cultured, at 37° C. under 5% CO2, in a DMEM medium supplemented with 2 g/liter of sodium carbonate, 1.2 mM of glutamine (pH 7.4 at 23° C.), 5% of fetal bovine serum (Gibco) and 2.5 ml of antibiotics per liter of medium (penicillin/streptomycin).
The TS/A cells are recovered with trypsin, washed twice and suspended in PBS buffer. The TS/A cells (approximately 4×10^6 […] cells/0.1 ml) are then injected subcutaneously into the flank of 6-week-old female BALB/c mice (supplied by Charles River). […] The animals (10 mice per group) are monitored regularly for tumor development. The volume of the tumors is calculated according to the following formula: L×l^2×0.5 (L is the length and l is the width of the tumor). The experiment was reproduced twice. The results are given in FIG. 18 (the arrow indicates the beginning of the treatment).

T2 sequence (Q15125 whole entry): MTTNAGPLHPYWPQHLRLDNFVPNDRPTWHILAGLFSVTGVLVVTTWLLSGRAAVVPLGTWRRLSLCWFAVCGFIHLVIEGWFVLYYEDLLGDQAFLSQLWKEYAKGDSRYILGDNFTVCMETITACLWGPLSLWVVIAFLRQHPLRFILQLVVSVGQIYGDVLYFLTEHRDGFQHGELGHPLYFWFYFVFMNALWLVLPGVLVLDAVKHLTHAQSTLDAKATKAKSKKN

CC(C)CCC[C@@H](C)[C@H]1CC[C@H]2[C@@H]3C[C@@H](NCCc4c[nH]cn4)[C@@]4(O)C[C@@H](O)CC[C@]4(C)[C@H]3CC[C@]12C [DDA, 6-N-[2-(3H-imidazol-4-yl)ethylamino]cholestane-3β,5α-diol]
Ki [1]: 1250 ± 6 nM
OCDO (% control) ([2]; Day 28): 14.5 ± 3 % control
OCDO (% control) ([2]; Day 37): 4.5 ± 3 % control
OCDO production by MCF-7 (% control) [3]: <1 % control
inhibition of ChEH ([4]; 0.1 and 1 μM, dependent on the concentration): causes an inhibition of ChEH
IC50 ([4]; [14C]CE 0.6 μM): 600 nM
IC50 [5]: 11.2 µM
Tumor size (% control) ([6]; Day 28): 65.4 ± 7 % control
Tumor size (% control) ([6]; Day 37): 28.3 ± 8 % control

— patent publication US20170176446A1, “Methods for Determining the Oncogenic Condition of Cell, Uses Thereof, and Methods for Treating Cancer” (INSERM (INSTITUT NATIONAL DE LA SANTE ET DE LA RECHERCHE …, priority 2009, published 2017)
